Measured values taken from article PMC8389922, “First-in-Class Cyclic Temporin L Analogue: Design, Synthesis, and Antimicrobial Assessment” (Journal of Medicinal Chemistry, 2021).
≈ marks a conversion by molar mass, not a printed value. Square brackets hold non-standard residues; d marks the D form. Peptide text beside a SMILES is read from it.

Experiments:
B. megaterium Bm11 = assay type: cell-based, Bacillus megaterium
Method: (§1) The antimicrobial activity of peptides 9–26 was assessed against a range of reference bacterial strains such as S. aureus ATCC 25923, Staphylococcus epidermidis ATCC 12228, Bacillus megaterium Bm11, E. coli ATCC 25922, P. aeruginosa ATCC 27853, and A. baumannii ATCC 19606 by the broth microdilution assay to determine the minimal growth inhibitory concentration (MIC, Table 1).[59] First, we evaluated the effects produced by the lactam bridge between Lys and Glu residues placed at different positions along the peptide sequence of reference 9. […] When the i,i+7 cyclization strategy was applied (20–23), a dramatic decrease of bacterial inhibition activity was observed. Specifically, the peptides 20, 22, and 23 only affected the microbial growth of the Gram-positive B. megaterium Bm11, at 12.5 μM. […] Peptide 25, which differs from 9 by the presence of an olefin bridge rather than lactam one, dramatically lost the activity (MIC > 100 μM) vs both Gram-positive and Gram-negative strains.
(§2) The determination of MICs was conducted as previously reported.[61] Aliquots of 50 μL of bacterial culture appropriately diluted were added to each well of a 96-well plate to reach a final cell density of 1 × 10^6 CFU/mL and a final peptide concentration ranging from 100 to 0.78 μM (final volume 100 μL).

circular dichroism = details: water; pH ns; 25 °C; 50 uM
[1] = 90% fresh human serum (male AB plasma), 37 ± 1 °C, peptide 0.2 mM, MeCN precipitation, RP-UHPLC peak area at 220 nm, triplicate
Method: (§5) Peptides were incubated with 90% fresh human serum at 37 ± 1 °C within 12 h.[69] The percentage of intact peptide was monitored by calculating the peak area of the chromatogram from RP-HPLC analysis.
(§6) The peptide was incubated in a 1.5 mL eppendorf tube with human serum at a final concentration of 0.2 mM, and the mixture was incubated at 37 ± 1 °C for different periods (0.25, 0.75, 1.5, 2, 3, 4, 6, 7, 8, and 12 h). After the incubation period, an aliquot of reaction solution was taken and added MeCN (double volume respect to the aliquot) for the precipitation of serum proteins present in human serum. The produced cloudy solution was cooled (4 °C) for 15 min and then centrifuged at 13 000 rpm for 10 min to remove the serum protein as pellet. Then, the supernatant was analyzed by RP-UHPLC using a linear elution gradient from 10 to 90% MeCN (0.1% TFA) in water (0.1% TFA) over 20 min. A flow rate of 1 mL/min was employed, and the absorbance of the eluting peaks was detected at 220 nm. The proteolytic stability assay was repeated in triplicate.

[2] = system: S. epidermidis ATCC 12228; assay type: cell-based, Staphylococcus epidermidis
Method: as §1, §2

P. aeruginosa ATCC 27853 = assay type: cell-based, Pseudomonas aeruginosa
Method: as §1, §2

[3] = system: preformed biofilm of A. baumannii ATCC 19606; details: ATCC 19606, 20 h
Method: (§3) Biofilm viability was determined as indicated in the Materials and General Procedures section and expressed as a percentage compared to that of untreated samples (100%). Values are the mean of at least three replicates ± SEM. Data are considered to be statistically significant as follows: *p < 0.05; ***p < 0.001; ****p < 0.0001. Biofilm eradication concentration 90, BEC90, was defined as the concentration able to reduce at least 90% of biofilm cells. TEXT PRINTED IN THE PICTURE: 9: S. aureus ATCC 25923: BEC90 = 25 μM; A. baumannii ATCC 19606: BEC90 > 100 μM | 12: S. aureus ATCC 25923: BEC90 = 12.5 μM; A. baumannii ATCC 19606: BEC90 = 25 μM
(§4) Preformed biofilms of S. aureus ATCC 25923 and A. baumannii ATCC 19606 were obtained as previously reported.[77] Microbial cultures were grown in Luria-Bertani broth (LB) at 37 °C to an optical density (OD) of 0.8 (λ = 590 nm) and then diluted in LB to a cell density of 1 × 10^6 colony-forming units (CFUs)/mL. Aliquots of 100 μL were dispensed into the wells of a 96-well plate, which was incubated for 20 h at 37 °C to allow biofilm formation. The medium containing planktonic cells was then aspirated from the wells and washed twice with 150 μL of phosphate-buffered saline (PBS) to remove any nonadherent cells. […] After treatment, each well was rinsed twice with PBS, as previously described. Then, 150 μL of MTT solution (0.5 mg/mL) were added to each well to evaluate biofilm cell viability. The plates were incubated at 37 °C for 4 h in the dark, and the reaction was stopped by adding sodium dodecyl sulfate (SDS) (at a final concentration of 5% v/v). The absorbance of each well was recorded at 570 nm using a microplate reader (Infinite M200; Tecan, Salzburg, Austria), and the percentage of biofilm cells viability was calculated with respect to the untreated samples (100%).

[4] = system: preformed biofilm of S. aureus ATCC 25923; details: ATCC 25923, 20 h
Method: as §3, §4

S. aureus ATCC 25923 = assay type: cell-based, Staphylococcus aureus
Method: as §1, §2

A. baumannii ATCC 19606 = assay type: cell-based, Acinetobacter baumannii
Method: as §1, §2

in vitro = details: male, human, 90% fresh human serum
Method: as §5, §6

[5] = system: S. aureus ATCC 43300, a methicillin-resistant strain (MRSA); assay type: cell-based, Staphylococcus aureus
Method: Thus, 12 was further tested against S. aureus ATCC 43300, a methicillin-resistant strain (MRSA), and compared with the linear precursor 9. […] No growth was observed after 24 h. Peptide 9 was bactericidal as well, by killing MRSA within 10 min, but at a higher concentration (25 μM).
The bacterial strains used in the antimicrobial assays were the Gram-negative E. coli ATCC 25922, P. aeruginosa ATCC 27853, A. baumannii ATCC 19606, the Gram-positive S. aureus ATCC 25923, S. epidermidis ATCC 12228, and B. megaterium Bm11. Methicillin-resistant S. aureus (MRSA) ATCC 43300 was obtained from Culture Collection Center of School of Basic Medical Sciences of Lanzhou University (China).
as §2

E. coli ATCC 25922 = assay type: cell-based, Escherichia coli
Method: as §1, §2

FtsZ protein = details: E. coli divisome; cited from earlier work
Source text: Temporins are AMPs and belong to the group of host defense peptides (HDP), originally isolated from the amphibian skin secretions of the […] Rana temporaria.[29] Their sequences are composed of 10–14 amino acids, amidated at the C-terminus. In hydrophobic environments, temporins fold into an amphipathic α-helix that, along with their cationic nature at physiological pH (from +2 to +3), is accountable for their biological behavior.

Compound: CC[C@H](C)[C@H](NC(=O)[C@H](CCCNC(=N)N)NC(=O)CNC(=O)[C@@H](CC(C)C)NC(=O)[C@H](Cc1ccccc1)NC(=O)[C@H](CCCCN)NC(=O)[C@H](CO)NC(=O)[C@H](Cc1ccccc1)NC(=O)[C@H](Cc1c[nH]c2ccccc12)NC(=O)[C@@H]1CCCN1C(=O)[C@@H](NC(=O)[C@@H](N)Cc1ccccc1)C(C)C)C(=O)N[C@@H](CC(C)C)C(N)=O [compound 9, [Pro^3,DLeu^9]TL, reference compound] (H-FVPWFSKF[dL]GRIL-NH2)
- MIC B. megaterium Bm11 (B. megaterium Bm11): 1.56 µM (≈ 2.51 µg/mL)
- helicity (circular dichroism): 3%
- time to complete degradation in human serum [1]: ≤ 6 h
- MIC S. epidermidis ATCC 12228 [2]: 6.25 µM (≈ 10.1 µg/mL)
- MIC P. aeruginosa ATCC 27853 (P. aeruginosa ATCC 27853): 50 µM (≈ 80.5 µg/mL)
- Biofilm Eradication Concentration 90 (BEC90) A. baumannii ATCC 19606 [3]: > 100 µM
- Biofilm Eradication Concentration 90 (BEC90) S. aureus ATCC 25923 [4]: 25 µM
- MIC S. aureus ATCC 25923 (S. aureus ATCC 25923): 6.25 µM (≈ 10.1 µg/mL)
- MIC A. baumannii ATCC 19606 (A. baumannii ATCC 19606): 6.25 µM (≈ 10.1 µg/mL)
- metabolised at 0.75 h, 0.2 mM (in vitro): ~40%
- MIC S. aureus ATCC 43300 (MRSA) [5]: 25 µM (≈ 40.2 µg/mL)
- MIC E. coli ATCC 25922 (E. coli ATCC 25922): 12.5 µM (≈ 20.1 µg/mL)

Compound: FVQWFSKFLGRIL [compound 7, Temporin L]
- Kd (FtsZ protein): 17.4 ± 0.8 nM
